These are literature values, as cited in the CATMoS acute toxicity set (Mansouri et al. 2021).

Several values for one entry are separate records, joined by “and”; a condition that tells them apart may be missing. Equal values may be shown once.

The data set can be described thus: rat acute oral toxicity. The settings on record: in vivo.
For orientation: LD50 means the dose expected to kill half of the subjects tested. For the compound `C[Si]1(C)OCCN(CCO)CCO1`, the LD50 was 3400 mg/kg.

As to `Cc1c(F)c(N2CCNC(C)C2)cc2c1c(=O)c(C(=O)O)cn2C1CC1` (stereo not drawn), the LD50 is 3030 mg/kg.

Turning to `COc1ccc2cc(C(C)C(=O)OCC(O)CO)ccc2c1` (stereo not drawn), the LD50 is 1630 mg/kg.

As for `Cc1ccc(N)cc1Br`, the median lethal dose (LD50) was 180 mg/kg.

Take `Cn1c(-c2ccccc2)cc(-c2ccccc2)[n+]1C`: the 50% lethal dose (LD50) was 206 mg/kg and 470 mg/kg.

Turning to `O=C(OCC(O)CO)c1ccccc1Nc1ccnc2c(C(F)(F)F)cccc12` (stereo not drawn), the LD50 is 535 mg/kg.

`CC(CC(=O)OC(C)(C)C)=NNc1ccc(N2CCOCC2)nn1`: the LD50 is 970 mg/kg.

Take `O=C1OC(=O)C2CC=CCC12` (stereo not drawn): the LD50 was 5410 mg/kg.

Regarding `OC(Cn1cncn1)(Cn1cncn1)c1ccc(F)cc1F`, the LD50 was 1270 mg/kg.

Consider `CC(Oc1cccc2ccccc12)C(N)N=O` (stereo not drawn), for which the LD50 is 108 mg/kg.

`O=C(O)CCC(=O)OCC1COC(C(Cl)(Cl)Cl)O1` (stereo not drawn): the LD50 is 3400 mg/kg.

Regarding `CCC(C)CC(CC)Nc1ccc(NC(CC)CC(C)CC)cc1` (stereo not drawn), the median lethal dose (LD50) is 2400 mg/kg.

As for `COc1c(Cl)c(Cl)c(OC)c2[nH]c(C(F)(F)F)nc12`, the median lethal dose (LD50) was 100 mg/kg.

Regarding `CC1(C)C(=O)[C@@]2(C)CC[C@@H]1C2`, the LD50 was 6160 mg/kg.

Turning to `COP(=S)(OC)OC1C2(C)CCC(C2)C1(C)C` (stereo not drawn), the LD50 is 250 mg/kg.

For `CC12CCC(C(Br)C1=O)C2(C)C` (stereo not drawn), the LD50 was 4450 mg/kg.

Turning to `Cc1ccc(C(=O)c2ccc(CC(=O)O)n2C)cc1`, the LD50 is 293 mg/kg.

Regarding `CC1=CC(=O)/C(=C(/C)O)C(=O)O1`, the LD50 is 500 mg/kg.

Take `O=C(O)c1ccc2ccccc2c1`: the LD50 was 4500 mg/kg.

Regarding `COC(=O)Nc1cccc(OC(=O)Nc2cccc(C)c2)c1`, the 50% lethal dose (LD50) is 4000 mg/kg.

Regarding `CNC(=O)Oc1ccc(O)c2ccccc12`, the LD50 was 1190 mg/kg.

On to `CCC1COC(Cn2cncn2)(c2ccc(Cl)cc2Cl)O1` (stereo not drawn), for which the LD50 was 1340 mg/kg.

Consider `CC(C)(Oc1ccc(Cl)cc1)C(=O)O`, for which the LD50 was 897 mg/kg.

Turning to `CCOC(=S)SCC#N`, the 50% lethal dose (LD50) was 210 mg/kg.

`OCC1CC2CCC1C2` (stereo not drawn): the median lethal dose (LD50) is 1600 mg/kg.

In the case of `Nc1ccc(N=Nc2c(S(=O)(=O)O)cc3cc(S(=O)(=O)O)c(N=Nc4ccccc4)c(O)c3c2N)cc1`, the LD50 was 3000 mg/kg.

On to `Cc1ccc(N=C=O)cc1`, for which the LD50 is 1600 mg/kg.

As for `COc1ccc(C)cc1N`, the LD50 is 1450 mg/kg.

On to `Cc1c(C)c(C)c2[nH]c(C(F)(F)F)nc2c1C`, for which the LD50 was 58 mg/kg.

On to `C1CN1P1(N2CC2)=NP(N2CC2)(N2CC2)=NP(N2CC2)(N2CC2)=N1`, for which the LD50 is 98 mg/kg.

With `CN1CCC2(C)c3cc(OC(=O)NCCCCCCCCCCN4CCOCC4)ccc3N(C)C12` (stereo not drawn), the LD50 is 40 mg/kg.

As for `Brc1ccccc1`, the LD50 is 2380 mg/kg.

In the case of `CCCc1ccc(O)c(OC)c1`, the LD50 was 2600 mg/kg.

Regarding `c1ccc(CNc2ncnc3c2NCN3)cc1`, the median lethal dose (LD50) is 2100 mg/kg.

`CCCOc1ccc(Cl)cc1C(CN(C)C)C(C)CC` (stereo not drawn): the LD50 was 561 mg/kg.

With `C=CC(N)CCC(=O)O` (stereo not drawn), the LD50 was 3000 mg/kg.

On to `CNC(N)=NC(=N)N`, for which the LD50 was 1750 mg/kg.

For `OCC(CO)N[C@H]1C[C@](O)(CO)[C@@H](O)[C@H](O)[C@H]1O`, the LD50 is 20000 mg/kg.

Turning to `CCCCCCCCCCCCOCCOCCOCCOS(=O)(=O)O`, the LD50 was 1820 mg/kg.

In the case of `O=Cc1ccc(CO)o1`, the LD50 was 2500 mg/kg.

For `CNC(=S)N(C)C`, the LD50 is 316 mg/kg.

For the compound `OCC[N+](CCO)(CCO)CCO`, the LD50 was 2250 mg/kg.

Regarding `CCCCC1(COC(=O)CCC(=O)O)C(=O)N(c2ccccc2)N(c2ccccc2)C1=O`, the LD50 is 1700 mg/kg.

Turning to `Nc1nc(N)nc(-c2cc(Cl)ccc2Cl)n1`, the LD50 is 2900 mg/kg.

With `COP(=S)(OC)Oc1cnc2ccccc2n1`, the LD50 is 900 mg/kg.

With `CC(C)[C@@]1(O)[C@@H](OC(=O)c2ccc[nH]2)[C@@]2(O)[C@@]3(C)C[C@]4(O)O[C@@]5([C@H](O)[C@@H](C)CC[C@]35O)[C@@]2(O)[C@@]14C`, the LD50 was 750 mg/kg.

`C[n+]1ccccc1`: the 50% lethal dose (LD50) was 285 mg/kg.

As to `COc1ccc(N=NN(C)C)cc1`, the LD50 was 347 mg/kg.

With `Fc1c(Cl)c(F)c2nc(C(F)(F)F)[nH]c2c1Cl`, the LD50 was 1.67 mg/kg.

In the case of `CCN(Cc1ccncc1)C(=O)C(CO)c1ccccc1` (stereo not drawn), the LD50 was 865 mg/kg.

As for `CCOC(=O)OC(C)OC1=C(C(=O)Nc2ccccn2)N(C)S(=O)(=O)c2ccccc21` (stereo not drawn), the LD50 is 747 mg/kg.

`COc1cc([N+](=O)[O-])ccc1N`: the LD50 is 997 mg/kg.

As for `FC(F)(F)c1nc2c(Cl)c(Cl)ccc2[nH]1`, the LD50 is 13.1 mg/kg.

`OCCCS`: the LD50 was 116 mg/kg.

Take `Oc1cccc2cccnc12`: the LD50 is 1200 mg/kg.

`CCN1CCNCC1`: the LD50 is 2160 mg/kg.

Regarding `C=C(C)C(=O)OCCOC(=O)C(=C)C`, the 50% lethal dose (LD50) is 3300 mg/kg.

With `CC1=CC(=O)OC1=O`, the LD50 was 2600 mg/kg.

Regarding `CS(=O)(=O)Oc1ccc(Cl)cc1Cl`, the LD50 was 2790 mg/kg.

As for `COc1cccc([C@@]2(O)CCCC[C@H]2CN(C)C)c1`, the LD50 was 228 mg/kg.

In the case of `O=C(O)CCCNS(=O)(=O)c1cccc(C(F)(F)F)c1`, the LD50 is 13000 mg/kg.

As to `O=CC(Cl)CCl` (stereo not drawn), the 50% lethal dose (LD50) was 160 mg/kg.

Turning to `OC(CCl)CNc1ccccc1NCC(O)CCl` (stereo not drawn), the LD50 was 900 mg/kg.
